Article PMC6631223, “Chain-Branched Polyhydroxylated Octahydro-1H-Indoles as Potential Leads against Lysosomal Storage Diseases” (Pharmaceuticals, 2019)

Tests used:
Type in all cases: biochemical
[1] = target: T1, α-Glucosidase (yeast) (Saccharomyces cerevisiae, UniProt P53341); experiment: Glycosidase inhibition: α-glucosidase (yeast); details: α-glucosidase, yeast; 1000 μM
T1 construct: purchased Sigma-Aldrich Co
Description: (§1) The enzymes α-glucosidase (from yeast, rice), β-glucosidase (from almonds, bovine liver), α-galactosidase (from coffee beans), β-galactosidase (from bovine liver), α-mannosidase (from jack beans), β-mannosidase (from snails), α-L-fucosidase (from bovine kidney), α-L-rhamnosidase (from Penicillium decumbens), β-glucuronidases (from Escherichia coli), α,α-trehalase (from porcine kidney), amyloglucosidase (from Aspergillus niger), p-nitrophenyl glycosides, and various disaccharides were purchased from Sigma-Aldrich Co. Brush border membranes were prepared from the rat small intestine according to the method of Kessler et al., and were assayed at pH 6.8 for rat intestinal maltase using maltose. For rat intestinal glucosidases and porcine kidney trehalase activities, the reaction mixture (0.2 mL) contained 25 mM substrate and the appropriate amount of enzyme, and the incubations were performed for 10 min at 37 °C. The reaction was stopped by heating at 100 °C for 3 min. After centrifugation (600 g; 10 min), 0.035 mL of the resulting reaction mixture were added to 2.1 mL of the Glucose CII-test Wako (Wako Pure Chemical Ind., Osaka, Japan). The absorbance at 505 nm was measured to determine the amount of the released D-glucose. Other glycosidase activities were determined using an appropriate p-nitrophenyl glycoside as substrate at the optimum pH of each enzyme. The reaction mixture (0.2 mL) contained 2 mM of the substrate and the appropriate amount of enzyme. The reaction was stopped by adding 0.4 mL of 400 mM Na2CO3. The released p-nitrophenol was measured spectrometrically at 400 nm.

[2] = target: T2, Lactase (β-Galactosidase) (Rattus norvegicus, UniProt Q02401); experiment: Glycosidase inhibition: lactase; details: read-out: inhibition % at 1000 μM
T2 construct: Brush border membranes were prepared from the rat small intestine; from tissue; host or cells: rat small intestine brush border membranes (inferred)
T2 sequence (Q02401 868-1928): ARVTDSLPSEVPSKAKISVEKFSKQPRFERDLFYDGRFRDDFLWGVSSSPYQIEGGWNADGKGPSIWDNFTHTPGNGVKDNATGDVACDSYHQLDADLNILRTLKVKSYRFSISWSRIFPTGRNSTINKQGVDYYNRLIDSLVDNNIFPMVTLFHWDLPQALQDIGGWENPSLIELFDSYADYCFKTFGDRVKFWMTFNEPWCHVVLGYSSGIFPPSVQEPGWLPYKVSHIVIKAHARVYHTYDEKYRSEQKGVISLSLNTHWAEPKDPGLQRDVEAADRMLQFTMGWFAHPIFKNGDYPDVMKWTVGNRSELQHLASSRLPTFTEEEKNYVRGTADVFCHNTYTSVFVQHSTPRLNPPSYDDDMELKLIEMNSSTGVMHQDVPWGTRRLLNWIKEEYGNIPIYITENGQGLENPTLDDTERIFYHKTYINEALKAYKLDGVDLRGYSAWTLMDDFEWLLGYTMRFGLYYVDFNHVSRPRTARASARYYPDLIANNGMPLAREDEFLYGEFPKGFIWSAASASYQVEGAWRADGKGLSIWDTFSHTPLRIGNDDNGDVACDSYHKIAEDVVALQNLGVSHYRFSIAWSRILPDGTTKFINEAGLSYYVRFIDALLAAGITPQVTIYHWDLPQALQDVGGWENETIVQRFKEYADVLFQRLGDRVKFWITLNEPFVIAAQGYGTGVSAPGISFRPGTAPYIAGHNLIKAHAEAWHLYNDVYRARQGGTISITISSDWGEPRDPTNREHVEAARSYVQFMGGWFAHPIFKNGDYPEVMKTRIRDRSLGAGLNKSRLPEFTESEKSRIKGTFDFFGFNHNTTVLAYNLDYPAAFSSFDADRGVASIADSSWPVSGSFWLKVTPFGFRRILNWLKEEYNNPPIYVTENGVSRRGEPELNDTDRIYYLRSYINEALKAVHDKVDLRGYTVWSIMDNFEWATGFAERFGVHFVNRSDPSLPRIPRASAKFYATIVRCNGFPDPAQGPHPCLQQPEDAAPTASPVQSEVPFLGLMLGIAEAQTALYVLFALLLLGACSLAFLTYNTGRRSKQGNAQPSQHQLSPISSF
Description: as §1

[3] = target: T3, α,α-Trehalase (porcine kidney) (Sus scrofa, UniProt I3LIR5); experiment: Glycosidase inhibition: α,α-trehalase (porcine kidney); details: read-out: inhibition % at 1000 μM
T3 construct: purchased Sigma-Aldrich Co; host or cells: porcine kidney
T3 sequence (I3LIR5 24-583): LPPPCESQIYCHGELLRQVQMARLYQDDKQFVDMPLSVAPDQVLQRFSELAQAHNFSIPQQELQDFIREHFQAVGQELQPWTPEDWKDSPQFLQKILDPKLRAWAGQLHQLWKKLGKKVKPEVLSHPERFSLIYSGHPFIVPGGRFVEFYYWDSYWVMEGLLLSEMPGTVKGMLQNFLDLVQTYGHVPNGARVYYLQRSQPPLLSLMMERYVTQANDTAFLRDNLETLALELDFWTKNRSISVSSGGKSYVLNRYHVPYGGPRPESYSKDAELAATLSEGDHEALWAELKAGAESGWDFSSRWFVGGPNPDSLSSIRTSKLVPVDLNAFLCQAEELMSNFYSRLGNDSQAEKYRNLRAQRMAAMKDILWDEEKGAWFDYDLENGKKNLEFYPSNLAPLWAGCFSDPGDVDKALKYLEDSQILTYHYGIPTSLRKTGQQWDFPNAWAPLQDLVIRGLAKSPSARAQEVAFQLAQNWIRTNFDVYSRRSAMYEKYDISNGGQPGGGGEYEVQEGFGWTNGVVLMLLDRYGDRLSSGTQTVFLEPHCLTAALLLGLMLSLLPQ
Description: as §1, with “After centrifugation (600 g; 10 min), 0.035 mL of the resulting reaction mixture were added to 2.1 mL of the Glucose CII-test Wako (Wako Pure Chemical Ind., Osaka, Japan).” left out, “The reaction mixture (0.2 mL) contained 2 mM of the substrate and the appropriate amount of enzyme. The reaction was stopped by adding 0.4 mL of 400 mM Na2CO3.” left out

T1 sequence (P53341 whole entry): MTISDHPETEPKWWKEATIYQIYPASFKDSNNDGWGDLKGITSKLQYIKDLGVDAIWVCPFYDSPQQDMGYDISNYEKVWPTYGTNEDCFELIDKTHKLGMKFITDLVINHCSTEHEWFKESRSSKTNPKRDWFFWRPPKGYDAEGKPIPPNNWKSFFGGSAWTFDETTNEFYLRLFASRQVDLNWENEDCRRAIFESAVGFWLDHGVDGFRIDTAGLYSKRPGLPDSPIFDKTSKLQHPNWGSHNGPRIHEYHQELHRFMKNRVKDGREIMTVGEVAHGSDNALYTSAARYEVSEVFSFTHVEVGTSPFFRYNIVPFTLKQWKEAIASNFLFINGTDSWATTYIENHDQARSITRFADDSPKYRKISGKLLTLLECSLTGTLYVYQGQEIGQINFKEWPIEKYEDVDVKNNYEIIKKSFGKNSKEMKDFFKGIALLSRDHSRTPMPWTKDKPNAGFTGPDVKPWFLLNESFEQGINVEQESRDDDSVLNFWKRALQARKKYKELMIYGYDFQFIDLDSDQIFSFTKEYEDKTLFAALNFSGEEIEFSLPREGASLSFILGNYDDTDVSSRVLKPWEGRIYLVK

Row | Structure (SMILES) | inhibition at 1000 µM [1] [%] | inhibition at 1000 µM [2] [%] | inhibition at 1000 µM [3] [%]
1 | CC[C@H]1CN[C@H]2C[C@@H](O)[C@H](O)[C@@H](O)[C@H]12 [Compound 13, (3R,3aR,4S,5S,6R,7aS)-3-ethyloctahydro-1H-indole-4,5,6-triol] | 19.5 | 7.4 | 0
2 | CC[C@@H]1CN[C@H]2C[C@@H](O)[C@H](O)[C@@H](O)[C@H]12 [Compound 10, (3S,3aR,4S,5S,6R,7aS)-3-Ethyloctahydro-1H-indole-4,5,6-triol] | 16 | 0.6 | 0
